Assay results published in PubChem BioAssay (NCI).
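Step 1: Grow cells in 96-well plates. Step 2: Expose to compound for 48 hours at 5 concentrations. Step 3: Interpolate endpoints linearly; if unreached, use highest concentration. GI50 marks 50% less growth. Definition used: TGI = concentration required for complete inhibition of growth.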

Columns and labels:
Assay in all cases: NCI anticancer screen, dose series, 48 h
HS 578T breast = test system: HS 578T breast
IGROV1 ovarian = test system: IGROV1 ovarian
A549 NSCLC = test system: A549 NSCLC
KM12 colon = test system: KM12 colon
T-47D breast = test system: T-47D breast
RXF 393 renal = test system: RXF 393 renal
DU-145 prostate = test system: DU-145 prostate
SR leukemia = test system: SR leukemia
MCF7 breast = test system: MCF7 breast
UACC-257 melanoma = test system: UACC-257 melanoma
RPMI-8226 leukemia = test system: RPMI-8226 leukemia
OVCAR-3 ovarian = test system: OVCAR-3 ovarian
OVCAR-8 ovarian = test system: OVCAR-8 ovarian
U251 CNS = test system: U251 CNS
MALME-3M melanoma = test system: MALME-3M melanoma
SK-OV-3 ovarian = test system: SK-OV-3 ovarian
HL-60(TB) leukemia = test system: HL-60(TB) leukemia
HOP-62 NSCLC = test system: HOP-62 NSCLC
NCI/ADR-RES ovarian = test system: NCI/ADR-RES ovarian
K-562 leukemia = test system: K-562 leukemia
SK-MEL-28 melanoma = test system: SK-MEL-28 melanoma
A498 renal = test system: A498 renal
SN12C renal = test system: SN12C renal
ACHN renal = test system: ACHN renal
PC-3 prostate = test system: PC-3 prostate
SF-539 CNS = test system: SF-539 CNS
SW-620 colon = test system: SW-620 colon
CAKI-1 renal = test system: CAKI-1 renal
NCI-H522 lung = test system: NCI-H522 lung
COLO 205 colon = test system: COLO 205 colon
786-0 renal = test system: 786-0 renal
OVCAR-4 ovarian = test system: OVCAR-4 ovarian
UO-31 renal = test system: UO-31 renal
LOX IMVI melanoma = test system: LOX IMVI melanoma
UACC-62 melanoma = test system: UACC-62 melanoma
HCT-116 colon = test system: HCT-116 colon
TK-10 renal = test system: TK-10 renal
HCT-15 colon = test system: HCT-15 colon
CCRF-CEM leukemia = test system: CCRF-CEM leukemia
MDA-MB-435 = test system: MDA-MB-435
SNB-19 CNS = test system: SNB-19 CNS
MDA-MB-231 breast = test system: MDA-MB-231 breast
NCI-H226 lung = test system: NCI-H226 lung
M14 melanoma = test system: M14 melanoma
SF-295 CNS = test system: SF-295 CNS
HT29 colon = test system: HT29 colon
SK-MEL-5 melanoma = test system: SK-MEL-5 melanoma
NCI-H23 lung = test system: NCI-H23 lung
HCC-2998 colon = test system: HCC-2998 colon
MOLT-4 leukemia = test system: MOLT-4 leukemia
SF-268 CNS = test system: SF-268 CNS
OVCAR-5 ovarian = test system: OVCAR-5 ovarian
SK-MEL-2 melanoma = test system: SK-MEL-2 melanoma
BT-549 breast = test system: BT-549 breast
SNB-75 CNS = test system: SNB-75 CNS
NCI-H460 lung = test system: NCI-H460 lung
HOP-92 NSCLC = test system: HOP-92 NSCLC

Question: How did the GI50 (HS 578T breast) turn out when `CC(C)(C)c1[nH]nc2c1C(c1cc3ccccc3[nH]c1=O)Nc1cc(C(=O)Nc3ccc(Cl)cc3)ccc1N2` (centres undefined) was run?
Answer: 2.38 µM

Question: And the TGI (HS 578T breast)?
Answer: > 28.8 µM

Question: What about the GI50 (IGROV1 ovarian) of the same molecule?
Answer: 3.28 µM

Question: What about the TGI (IGROV1 ovarian) of the same molecule?
Answer: 8.95 µM

Question: What about the GI50 (A549 NSCLC) of the same molecule?
Answer: 4.66 µM

Question: What about the TGI (A549 NSCLC) of the same molecule?
Answer: > 100 µM

Question: What about the GI50 (KM12 colon) of the same molecule?
Answer: 3.33 µM

Question: What about the TGI (KM12 colon) of the same molecule?
Answer: 16.2 µM

Question: And the GI50 (T-47D breast)?
Answer: 2.5 µM

Question: And the TGI (T-47D breast)?
Answer: 9.14 µM

Question: What about the GI50 (RXF 393 renal) of the same molecule?
Answer: 1.94 µM

Question: And the TGI (RXF 393 renal)?
Answer: 3.7 µM

Question: What about the GI50 (DU-145 prostate) of the same molecule?
Answer: 4.26 µM

Question: What about the TGI (DU-145 prostate) of the same molecule?
Answer: > 48.4 µM

Question: And the GI50 (SR leukemia)?
Answer: 2.56 µM

Question: And the TGI (SR leukemia)?
Answer: > 24.9 µM

Question: And the GI50 (MCF7 breast)?
Answer: 2.55 µM

Question: What about the TGI (MCF7 breast) of the same molecule?
Answer: 15.3 µM

Question: What about the GI50 (UACC-257 melanoma) of the same molecule?
Answer: 2.33 µM

Question: What about the TGI (UACC-257 melanoma) of the same molecule?
Answer: 7.31 µM

Question: What about the GI50 (RPMI-8226 leukemia) of the same molecule?
Answer: 1.9 µM

Question: What about the TGI (RPMI-8226 leukemia) of the same molecule?
Answer: 5.27 µM

Question: What about the GI50 (OVCAR-3 ovarian) of the same molecule?
Answer: 1.93 µM

Question: And the TGI (OVCAR-3 ovarian)?
Answer: 3.82 µM

Question: What about the GI50 (OVCAR-8 ovarian) of the same molecule?
Answer: 3.04 µM

Question: What about the TGI (OVCAR-8 ovarian) of the same molecule?
Answer: 11 µM

Question: And the GI50 (U251 CNS)?
Answer: 3.08 µM

Question: And the TGI (U251 CNS)?
Answer: 11.4 µM

Question: What about the GI50 (MALME-3M melanoma) of the same molecule?
Answer: 1.92 µM

Question: And the TGI (MALME-3M melanoma)?
Answer: 4.41 µM

Question: What about the GI50 (SK-OV-3 ovarian) of the same molecule?
Answer: 3.04 µM

Question: And the TGI (SK-OV-3 ovarian)?
Answer: 8.01 µM

Question: What about the GI50 (HL-60(TB) leukemia) of the same molecule?
Answer: 2.33 µM

Question: And the TGI (HL-60(TB) leukemia)?
Answer: 5.64 µM

Question: What about the GI50 (HOP-62 NSCLC) of the same molecule?
Answer: 3.14 µM

Question: And the TGI (HOP-62 NSCLC)?
Answer: 10 µM

Question: What about the GI50 (NCI/ADR-RES ovarian) of the same molecule?
Answer: > 100 µM

Question: What about the TGI (NCI/ADR-RES ovarian) of the same molecule?
Answer: > 100 µM

Question: What about the GI50 (K-562 leukemia) of the same molecule?
Answer: 2.94 µM

Question: What about the TGI (K-562 leukemia) of the same molecule?
Answer: > 54.9 µM

Question: What about the GI50 (SK-MEL-28 melanoma) of the same molecule?
Answer: 3.76 µM

Question: What about the TGI (SK-MEL-28 melanoma) of the same molecule?
Answer: 21.5 µM

Question: What about the GI50 (A498 renal) of the same molecule?
Answer: 1.58 µM

Question: What about the TGI (A498 renal) of the same molecule?
Answer: 3.8 µM

Question: And the GI50 (SN12C renal)?
Answer: 3.15 µM

Question: And the TGI (SN12C renal)?
Answer: 14 µM

Question: What about the GI50 (ACHN renal) of the same molecule?
Answer: 4.71 µM

Question: And the TGI (ACHN renal)?
Answer: > 64.7 µM

Question: And the GI50 (PC-3 prostate)?
Answer: 3.15 µM

Question: And the TGI (PC-3 prostate)?
Answer: 11.7 µM

Question: What about the GI50 (SF-539 CNS) of the same molecule?
Answer: 2.34 µM

Question: What about the TGI (SF-539 CNS) of the same molecule?
Answer: 6.49 µM

Question: And the GI50 (SW-620 colon)?
Answer: 3.13 µM

Question: And the TGI (SW-620 colon)?
Answer: 12.3 µM

Question: What about the GI50 (CAKI-1 renal) of the same molecule?
Answer: > 100 µM

Question: What about the TGI (CAKI-1 renal) of the same molecule?
Answer: > 100 µM

Question: What about the GI50 (NCI-H522 lung) of the same molecule?
Answer: 2.71 µM

Question: And the TGI (NCI-H522 lung)?
Answer: 6.94 µM

Question: And the GI50 (COLO 205 colon)?
Answer: 2.88 µM

Question: And the TGI (COLO 205 colon)?
Answer: 6.46 µM

Question: What about the GI50 (786-0 renal) of the same molecule?
Answer: 2.3 µM

Question: And the TGI (786-0 renal)?
Answer: 5.54 µM

Question: And the GI50 (OVCAR-4 ovarian)?
Answer: 2.12 µM

Question: What about the TGI (OVCAR-4 ovarian) of the same molecule?
Answer: 6.96 µM

Question: And the GI50 (UO-31 renal)?
Answer: 46 µM

Question: What about the TGI (UO-31 renal) of the same molecule?
Answer: > 100 µM

Question: What about the GI50 (LOX IMVI melanoma) of the same molecule?
Answer: 2.98 µM

Question: What about the TGI (LOX IMVI melanoma) of the same molecule?
Answer: 9.21 µM

Question: And the GI50 (UACC-62 melanoma)?
Answer: 2.03 µM

Question: What about the TGI (UACC-62 melanoma) of the same molecule?
Answer: 4.41 µM

Question: And the GI50 (HCT-116 colon)?
Answer: 3.11 µM

Question: What about the TGI (HCT-116 colon) of the same molecule?
Answer: 10.7 µM

Question: And the GI50 (TK-10 renal)?
Answer: 3.71 µM

Question: What about the TGI (TK-10 renal) of the same molecule?
Answer: 17.2 µM

Question: What about the GI50 (HCT-15 colon) of the same molecule?
Answer: > 28.8 µM

Question: What about the TGI (HCT-15 colon) of the same molecule?
Answer: > 100 µM

Question: And the GI50 (CCRF-CEM leukemia)?
Answer: 2.16 µM

Question: What about the TGI (CCRF-CEM leukemia) of the same molecule?
Answer: > 21.6 µM

Question: And the GI50 (MDA-MB-435)?
Answer: 1.84 µM

Question: And the TGI (MDA-MB-435)?
Answer: 4.84 µM

Question: What about the GI50 (SNB-19 CNS) of the same molecule?
Answer: 2.68 µM

Question: What about the TGI (SNB-19 CNS) of the same molecule?
Answer: 11.9 µM

Question: And the GI50 (MDA-MB-231 breast)?
Answer: 2.26 µM

Question: And the TGI (MDA-MB-231 breast)?
Answer: 6.32 µM

Question: And the GI50 (NCI-H226 lung)?
Answer: 2.94 µM

Question: What about the TGI (NCI-H226 lung) of the same molecule?
Answer: 11.1 µM

Question: What about the GI50 (M14 melanoma) of the same molecule?
Answer: 2.12 µM

Question: And the TGI (M14 melanoma)?
Answer: 4.75 µM

Question: And the GI50 (SF-295 CNS)?
Answer: 2.77 µM

Question: And the TGI (SF-295 CNS)?
Answer: 8.82 µM

Question: What about the GI50 (HT29 colon) of the same molecule?
Answer: 3.46 µM

Question: And the TGI (HT29 colon)?
Answer: 13 µM

Question: What about the GI50 (SK-MEL-5 melanoma) of the same molecule?
Answer: 1.77 µM

Question: And the TGI (SK-MEL-5 melanoma)?
Answer: 3.55 µM

Question: What about the GI50 (NCI-H23 lung) of the same molecule?
Answer: 2.6 µM

Question: What about the TGI (NCI-H23 lung) of the same molecule?
Answer: 7.31 µM

Question: And the GI50 (HCC-2998 colon)?
Answer: 2.64 µM

Question: What about the TGI (HCC-2998 colon) of the same molecule?
Answer: 6.52 µM

Question: And the GI50 (MOLT-4 leukemia)?
Answer: 2.32 µM

Question: What about the TGI (MOLT-4 leukemia) of the same molecule?
Answer: 7.91 µM

Question: And the GI50 (SF-268 CNS)?
Answer: 3.66 µM

Question: And the TGI (SF-268 CNS)?
Answer: 29.5 µM

Question: What about the GI50 (OVCAR-5 ovarian) of the same molecule?
Answer: 3.84 µM

Question: What about the TGI (OVCAR-5 ovarian) of the same molecule?
Answer: 39 µM

Question: And the GI50 (SK-MEL-2 melanoma)?
Answer: 2 µM

Question: What about the TGI (SK-MEL-2 melanoma) of the same molecule?
Answer: 4.05 µM

Question: And the GI50 (BT-549 breast)?
Answer: 2.37 µM

Question: What about the TGI (BT-549 breast) of the same molecule?
Answer: 6.65 µM

Question: And the GI50 (SNB-75 CNS)?
Answer: 2.27 µM

Question: And the TGI (SNB-75 CNS)?
Answer: 6.51 µM

Question: And the GI50 (NCI-H460 lung)?
Answer: 3.21 µM

Question: What about the TGI (NCI-H460 lung) of the same molecule?
Answer: 18.2 µM

Question: And the GI50 (HOP-92 NSCLC)?
Answer: 2.03 µM

Question: And the TGI (HOP-92 NSCLC)?
Answer: 6.05 µM
